Eight compounds from ChEMBL document CHEMBL1250439, “2-phenyl-1-[4-(2-piperidine-1-yl-ethoxy)benzyl]-1H-benzimidazoles as ligands for the estrogen receptor: synthesis and pharmacological evaluation” (Bioorg Med Chem, 2010) can be followed below.

For orientation: T/C means the result in the treated group divided by that in the control group, in per cent. A word on the ΔTm: it is the shift of the melting midpoint relative to a reference. The term pIC50 denotes the negative decadic logarithm of the IC50, by convention in mol/L. A lower pIC50 goes with a large IC50. For orientation: pKi means the Ki on a negative log10 scale, so that one unit is a factor of ten. A lower pKi goes with a high Ki.

Experiment [1] concerns MCF7. The experiment is described as follows: Cytostatic activity against human MCF7 cells at 5 uM after 3 days by microtiter assay. The experiment is classed as functional.
Experiment [2] concerns MCF7. The experiment is described as follows: Cytostatic activity against human MCF7 cells at 10 uM after 3 days by microtiter assay. The experiment is classed as functional.
Another experiment deals with MDA-MB-231. In words: Cytostatic activity against human MDA-MB-231 cells after 3 days by microtiter assay. In kind it is functional, cell-based.
The test system of another experiment is Calf thymus DNA. In words: Binding affinity to calf thymus DNA assessed as change in melting temperature. Conditions: Bos taurus. The experiment is classed as nucleic-acid assay.
In experiment [3] the target is T1, Estrogen receptor (Homo sapiens, UniProt P03372).
T1 sequence (P03372 whole entry): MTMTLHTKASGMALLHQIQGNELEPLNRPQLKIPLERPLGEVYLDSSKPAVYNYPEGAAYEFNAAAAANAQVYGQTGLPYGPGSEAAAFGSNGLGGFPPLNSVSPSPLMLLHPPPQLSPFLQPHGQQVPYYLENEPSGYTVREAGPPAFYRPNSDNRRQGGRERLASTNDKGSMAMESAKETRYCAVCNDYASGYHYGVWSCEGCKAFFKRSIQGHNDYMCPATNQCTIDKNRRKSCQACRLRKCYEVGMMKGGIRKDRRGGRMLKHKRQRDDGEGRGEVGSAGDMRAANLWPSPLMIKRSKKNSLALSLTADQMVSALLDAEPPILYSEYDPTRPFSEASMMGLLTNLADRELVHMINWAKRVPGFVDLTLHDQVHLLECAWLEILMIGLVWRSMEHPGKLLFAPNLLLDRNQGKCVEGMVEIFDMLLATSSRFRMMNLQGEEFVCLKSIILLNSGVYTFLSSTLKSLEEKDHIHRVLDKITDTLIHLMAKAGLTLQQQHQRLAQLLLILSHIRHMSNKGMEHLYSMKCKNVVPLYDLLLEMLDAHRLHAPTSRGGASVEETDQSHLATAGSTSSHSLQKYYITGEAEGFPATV
In words: Antagonist activity at human ERalpha expressed in human MCF7 cells by luciferase reporter gene assay. In kind it is functional, cell-based. A general note: A reporter such as luciferase makes a cellular process visible.

In experiment [4] the test system is MCF7. The experiment is described as follows: Cytostatic activity against human MCF7 cells at 1 uM after 3 days by microtiter assay. The experiment is classed as functional.
Another experiment deals with T2, Adenosine receptor A1 (Rattus norvegicus, UniProt P25099).
T2 sequence (P25099 whole entry): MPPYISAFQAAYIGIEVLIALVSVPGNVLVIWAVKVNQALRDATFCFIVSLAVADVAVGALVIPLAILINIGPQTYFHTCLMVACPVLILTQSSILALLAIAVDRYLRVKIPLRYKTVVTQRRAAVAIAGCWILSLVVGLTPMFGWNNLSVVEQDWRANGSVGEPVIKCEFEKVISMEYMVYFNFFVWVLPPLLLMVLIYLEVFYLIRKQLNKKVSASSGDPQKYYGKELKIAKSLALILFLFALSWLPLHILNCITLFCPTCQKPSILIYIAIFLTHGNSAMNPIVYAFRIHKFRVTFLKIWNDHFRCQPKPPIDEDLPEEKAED
The experiment is described as follows: Displacement of [3H]CCPA from adenosine A1 receptor in rat brain cortical membrane. In kind it is cell membranes.

Experiment [5] addresses T1, Estrogen receptor. The experiment is described as follows: Antagonist activity at human ERalpha expressed in human MCF7 cells at 10 uM by luciferase reporter gene assay. The experiment is classed as functional, cell-based.
In experiment [6] the target is T3, Estrogen receptor (Homo sapiens) (UniProt P03372).
T3 sequence (whole entry): T1 sequence (P03372 whole entry)
In words: Displacement of [3H]E2 from human estrogen receptor alpha relative to control. In general terms: Loss of bound radioactivity is the signal in a displacement assay; it reports binding, not function.

For experiment [7], the target named is Estrogen receptor beta (Homo sapiens) (UniProt Q92731). The experiment is described as follows: Displacement of [3H]E2 from human estrogen receptor beta relative to control.

pIC50, pKi: −log10 of the molar value. The source made the active and inactive calls. No cut-off for these calls is given here. A value given as a limit tells only on which side of the number the result lay.

Estrogen receptor beta (Homo sapiens), sequence (Q92731 whole entry): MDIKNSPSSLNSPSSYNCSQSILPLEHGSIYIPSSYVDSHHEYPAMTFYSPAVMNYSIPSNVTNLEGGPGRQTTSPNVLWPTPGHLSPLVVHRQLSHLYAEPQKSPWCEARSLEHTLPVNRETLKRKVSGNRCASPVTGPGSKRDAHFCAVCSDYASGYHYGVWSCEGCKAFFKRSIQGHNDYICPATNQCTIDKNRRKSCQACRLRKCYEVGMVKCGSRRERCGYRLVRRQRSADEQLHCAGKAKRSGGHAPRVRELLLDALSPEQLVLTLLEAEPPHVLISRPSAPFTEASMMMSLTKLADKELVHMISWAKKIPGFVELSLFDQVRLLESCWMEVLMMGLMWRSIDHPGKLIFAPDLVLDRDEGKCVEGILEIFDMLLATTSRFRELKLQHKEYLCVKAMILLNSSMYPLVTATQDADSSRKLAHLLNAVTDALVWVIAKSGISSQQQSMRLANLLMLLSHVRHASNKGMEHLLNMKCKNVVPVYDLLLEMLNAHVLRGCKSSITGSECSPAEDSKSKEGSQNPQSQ

With `CC/C(=C(\c1ccccc1)c1ccc(OCCN(C)C)cc1)c1ccccc1` [TAMOXIFEN], in the experiment on MCF7 [1], the T/C is 0%. Also, the outcome in the experiment with MCF7 [2] was inactive. In addition, in the experiment on MDA-MB-231, the result was Active.
`O=C(c1ccc(OCCN2CCCCC2)cc1)c1c(-c2ccc(O)cc2)sc2cc(O)ccc12` [RALOXIFENE] displayed a T/C in the experiment on MCF7 [1] of 0%. The result with MCF7 [2] was inactive. Besides, the result with MDA-MB-231 was Active.
`Oc1ccc2nc(-c3ccccc3)n(Cc3ccc(OCCN4CCCCC4)cc3)c2c1`: the ΔTm in the experiment on Calf thymus DNA stood at 3 °C. For the same compound, the T/C with MCF7 [1] is given as 0%; with MCF7 [2] it was <0%; in the experiment with MCF7 [4], 50%. The compound further showed a pIC50 against Estrogen receptor [3] of 6.51.
With `Oc1ccc(-c2nc3cc(O)ccc3n2Cc2ccc(OCCN3CCCCC3)cc2)cc1`, the ΔTm in the experiment with Calf thymus DNA is 3 °C. The compound also had a pKi on Adenosine receptor A1 of 5.43.
`CCC(=C(c1ccc(O)cc1)c1ccc(OCCN(C)C)cc1)c1ccccc1`: the T/C in the experiment with MCF7 [1] was 0%. Moreover, in the experiment on MCF7 [2], the outcome was inactive. Also, in the experiment on MDA-MB-231, the result was Active.
With `Oc1ccc(-c2nc3ccccc3n2Cc2ccc(OCCN3CCCCC3)cc2)cc1`, in the experiment on Calf thymus DNA, the ΔTm was 3 °C. Besides, the T/C is 0% with MCF7 [1], <0% in the experiment on MCF7 [2] and 50% with MCF7 [4]. The compound also showed a pIC50 against Estrogen receptor [5] of 5.29.
As for `Oc1ccc2c(c1)nc(-c1ccccc1)n2Cc1ccc(OCCN2CCCCC2)cc1`, in the experiment with Calf thymus DNA, the thermal shift (ΔTm) is 3 °C. Further, the T/C in the experiment with MCF7 [1] was 0%; in the experiment with MCF7 [2], <0%; in the experiment on MCF7 [4], 50%. The RBA came out at 0.43% in [6] and 0.54% in experiment [7].
In the case of `Oc1ccc(-c2nc3ccc(O)cc3n2Cc2ccc(OCCN3CCCCC3)cc2)cc1`, the ΔTm in the experiment on Calf thymus DNA was found to be 3 °C. Besides, on Adenosine receptor A1, the pKi was ≥ 5.43.
